We go through 3 compounds from publication PMC13622972 (Antiviral research, 2022).

In assay [1] the test system is pseudotyped Ebola virus (EBOV).
Assay [2] deals with wild type Ebola virus Zaire. Particulars: 36 h.
Assay [3] relates to pseudotyped Vesicular stomatitis virus (VSV). Format: cell-based.
Assay [4] has as its system pseudotyped Marburg virus (MARV).

Positions of bridges follow the written chain, without caps; N, C: chain ends. Residues, ends and D or L forms follow the SMILES beside them.

As a reminder, the IC50 is the midpoint of a concentration-inhibition curve. A high value points to weaker potency. As to `CC(C)[C@@H]1NC(=O)[C@H](Cc2ccccc2)NC(=O)[C@H](Cc2ccccc2)NC(=O)[C@H](CC(=O)O)NC(=O)[C@H](CC(=O)O)NC(=O)CNC(=O)[C@H](CCCCN)NC(=O)[C@@H](NC(=O)[C@@H](N)Cc2c[nH]cn2)CSSC[C@@H](C(=O)N[C@@H](Cc2ccc(O)cc2)C(=O)O)NC(=O)[C@H](C)NC(=O)[C@H](Cc2ccc(O)cc2)NC1=O` [erp1c, HCKGDDFFVYACY] (H-HCKGDDFFVYACY-OH; disulfide 2-12 (inferred); N-terminus and C-terminus assumed), the IC50 was found to be 12.3 µM in assay [1], 10.5 µM in assay [2] and 28.5 µM in assay [4]. Besides, the “Activity against the pseudotyped VSV virus” value (“Activity” for short) in assay [3] was “no activities”.

With `C[C@@H](O)[C@@H]1NC(=O)CNC(=O)[C@@H](N)CSSC[C@@H](C(=O)O)NC(=O)[C@H](Cc2ccc(O)cc2)NC(=O)[C@H](Cc2ccc(O)cc2)NC(=O)[C@H](Cc2ccc(O)cc2)NC(=O)[C@H](Cc2ccccc2)NC1=O` [m78abc, CGTFYYYC] (H-CGTFYYYC-OH; disulfide 1-8 (inferred); N-terminus and C-terminus assumed), the IC50 came to 16.1 µM in assay [1] and 12.5 µM in assay [4]. Also, the “Activity” value in assay [3] is “no activities”.

For the compound `CC(C)[C@@H]1NC(=O)[C@H](Cc2ccccc2)NC(=O)CNC(=O)[C@H](CO)NC(=O)[C@@H](N)CSSC[C@@H](C(=O)O)NC(=O)[C@H](Cc2c[nH]c3ccccc23)NC(=O)[C@H](CCC(=O)O)NC1=O` [m191abc, CSGFVEWC] (H-CSGFVEWC-OH; disulfide 1-8 (inferred); N-terminus and C-terminus assumed), the IC50 in assay [1] came to 37.2 µM; in assay [4], 8.5 µM. Besides, in assay [3], the “Activity” value is on record as “no activities”.
